Measured values published in patent US20040198707A1, “Means and method for hormonal contraception” (priority 2001, published 2004).

Assay: conversion factors for progestogens: amount equivalent to a given amount of levonorgestrel
Conditions: estimate of the amount of progestogen equivalent to a given amount of levonorgestrel (levonorgestrel = 1)
Source text: In order to determine for a specific biogenic estrogen or synthetic estrogen the amounts that are equivalent to a cited amount of ethinyl estradiol or 17beta-estradiol, the method described by Allen and Doisy may suitably be used (Allen A., Doisy E. A., “An ovarian hormone. Preliminary report on its localization, extraction and partial purification, and action in test animals. JAMA (1923), 81, 819-821). Similarly, in order to determine for a given progestogen the amount equivalent to cited amount of levonorgestrel the method originally described by McPhail can be used (Mc Phail M. K. “The assay of progestin” J Physiol (1934), 83, 145-156). A more recent description of this method can be found in an article written by Overbeek G. A., de Visser J. “A new substance with progestational activity”, Acta Endocrinol (1956), 22,318-329. It is noted that the aforementioned methods will provide useful indications about the anticipated estrogen potency or progestogen potency of a particular hormone. However, to accurately determine the equivalent amounts that are referred to above, it is advisable to additionally conduct in vivo studies in human females.
For guidance the table below provides the conversion factors for a number of progestogens that may suitably be used in the method of the invention. These conversion factors may be used to calculate, for each progestogen mentioned in the table, an estimate of the amount of said progestogen which is equivalent to a given amount of levonorgestrel.

**Q.** With `C[C@]12CCC(=O)C=C1[C@@H]1C[C@@H]1[C@H]1[C@@H]3[C@@H]4C[C@@H]4[C@@]4(CCC(=O)O4)[C@@]3(C)CC[C@@H]12` [drospirenone] as the compound, how does the Conversion factor read?
**A.** Its Conversion factor is 20.

**Q.** For `CC(=O)[C@H]1CC[C@H]2[C@@H]3C=CC4=CC(=O)CC[C@@]4(C)[C@@H]3CC[C@]12C` [dydrogesterone], which Conversion factor is on record?
**A.** The Conversion factor was 133.

**Q.** For `C#C[C@]1(OC(C)=O)CC[C@H]2[C@@H]3CCC4=CC(=NO)CC[C@@H]4[C@H]3CC[C@@]21CC` (mixture of isomers) [norgestimate], which Conversion factor is on record?
**A.** Its Conversion factor is 1.7.

**Q.** With `C#C[C@]1(O)CC[C@H]2[C@@H]3CCC4=CC(=O)CC[C@@H]4[C@H]3CC[C@@]21C` [norethisterone] as the compound, how does the Conversion factor read?
**A.** Its Conversion factor is 7.
